Source: PMC4403932 (Journal of Medicinal Chemistry, 2015)
Like-named read-outs stand apart in the source and are kept apart here.

Legend:
Format in all cases: binding
BRD4(2) = target: T1, BRD4(2) (Homo sapiens, UniProt O60885); assay: Protein stability (thermal) shift assay, BRD4(2); conditions: compound 10 μM, protein 2 μM; average of triplicate
T1 construct: made in house
Method: (§1) Thermal melting experiments were carried out using an Mx3005p real time PCR machine (Stratagene). Proteins were buffered in 10 mM HEPES, pH 7.5, 500 mM NaCl and assayed in a 96-well plate at a final concentration of 2 μM in 20 μL volume. Compounds were added at a final concentration of 10 or 100 μM. SYPRO Orange (Molecular Probes) was added as a fluorescence probe at a dilution of 1 in 1000. Excitation and emission filters for the SYPRO-Orange dye were set to 465 and 590 nm, respectively. The temperature was raised with a step of 3 °C per minute from 25 to 96 °C, and fluorescence readings were taken at each interval. The temperature dependence of the fluorescence during the protein denaturation process was approximated by the equation [drawing 1] where ΔuG is the difference in unfolding free energy between the folded and unfolded state, R is the gas constant, and yF and yU are the fluorescence intensity of the probe in the presence of completely folded and unfolded protein, respectively.[65] The baselines of the denatured and native states were approximated by a linear fit. The observed temperature shifts, ΔTm^obs, were recorded as the difference between the transition midpoints of sample and reference wells containing protein without ligand in the same plate and determined by nonlinear least-squares fit. Temperature shifts (ΔTm^obs) for three independent measurements per proteins/compound are summarized in Supporting Information Table S1.

BAZ2B = target: T2, BAZ2B (Homo sapiens, UniProt Q9UIF8); assay: Protein stability (thermal) shift assay, BAZ2B; conditions: compound 10 μM, protein 2 μM; average of triplicate; read-out: ΔTm Shift, BAZ2BA
T2 construct: representative BRDs from other structural subfamilies (family I, PCAF); family III, CREBBP; family IV, BRD9; family V, BAZ2B; made in house
T2 sequence (Q9UIF8 2060-2164 limits assumed): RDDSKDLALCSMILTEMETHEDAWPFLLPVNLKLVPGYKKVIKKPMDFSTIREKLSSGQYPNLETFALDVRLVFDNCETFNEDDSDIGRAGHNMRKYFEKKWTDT
Method: as §1

CREBBP = target: T3, CREBBP (Homo sapiens, UniProt Q92793); assay: Protein stability (thermal) shift assay, CREBBP
T3 construct: small thermal shits (1.0–1.3 °C) for the bromodomain of CREBBP; made in house
Method: as §1

BRD3(1) = target: T4, BRD3(1) (Homo sapiens, UniProt Q15059); assay: Protein stability (thermal) shift assay, BRD3(1); conditions: compound 10 μM, protein 2 μM; average of triplicate
T4 construct: Fragments were tested in a thermal shift assay against bromodomains of the BET subfamily; made in house
Method: as §1

BRD4(1) = target: T5, BRD4(1) (Homo sapiens, UniProt O60885); assay: Protein stability (thermal) shift assay, BRD4(1); conditions: compound 10 μM, protein 2 μM; average of triplicate; read-out: ΔTm Shift, BRD4(1)
T5 construct: made in house
Method: as §1

BRD3(2) = target: T6, BRD3(2) (Homo sapiens, UniProt Q15059); assay: Protein stability (thermal) shift assay, BRD3(2); conditions: compound 10 μM, protein 2 μM; average of triplicate
T6 construct: made in house
Method: as §1

BRD9 [1] = target: T7, BRD9 (Homo sapiens, UniProt Q9H8M2); assay: Protein stability (thermal) shift assay, BRD9; conditions: compound 10 μM, protein 2 μM; average of triplicate; read-out: ΔTm Shift, BRD9
T7 construct: made in house
T7 sequence (Q9H8M2 136-240 limits assumed): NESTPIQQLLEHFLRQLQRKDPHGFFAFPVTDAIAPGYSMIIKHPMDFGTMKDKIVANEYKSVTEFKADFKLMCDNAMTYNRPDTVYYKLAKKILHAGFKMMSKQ
Method: as §1

[2] = test system: human bromodomains (panel); assay: Protein stability (thermal) shift assay, whole panel of human bromodomains; conditions: 10 μM compound
Method: as §1

PB1(5) = target: T8, PB1(5) (Homo sapiens, UniProt Q86U86); assay: Protein stability (thermal) shift assay, PB1(5); conditions: compound 10 μM, protein 2 μM; average of triplicate
T8 construct: made in house
Method: as §1

BRDT(2) = target: T9, BRDT(2) (Homo sapiens, UniProt Q58F21); assay: Protein stability (thermal) shift assay, BRDT(2)
T9 construct: made in house
Method: as §1

BRD2(1) = target: T10, BRD2(1) (Homo sapiens, UniProt P25440); assay: Protein stability (thermal) shift assay, BRD2(1); conditions: compound 10 μM, protein 2 μM; average of triplicate
T10 construct: Fragments were tested in a thermal shift assay against bromodomains of the BET subfamily; made in house
Method: as §1

BRDT(1) = target: T11, BRDT(1) (Homo sapiens, UniProt Q58F21); assay: Protein stability (thermal) shift assay, BRDT(1); conditions: compound 10 μM, protein 2 μM; average of triplicate
T11 construct: made in house
Method: as §1

BRD2(2) = target: T12, BRD2(2) (Homo sapiens, UniProt P25440); assay: Protein stability (thermal) shift assay, BRD2(2); conditions: compound 10 μM, protein 2 μM; average of triplicate
T12 construct: made in house
Method: as §1

PCAF = target: T13, PCAF (Homo sapiens, UniProt Q92831); assay: Protein stability (thermal) shift assay, PCAF; conditions: compound 10 μM, protein 2 μM; average of triplicate
T13 construct: representative BRDs from other structural subfamilies (family I, PCAF); made in house
T13 sequence (Q92831 723-827 limits assumed): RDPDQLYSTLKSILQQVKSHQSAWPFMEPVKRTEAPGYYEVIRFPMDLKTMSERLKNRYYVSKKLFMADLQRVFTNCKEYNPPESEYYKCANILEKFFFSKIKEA
Method: as §1

BRD9 [3] = target: T7, BRD9; assay: Isothermal titration calorimetry, BRD9; conditions: ITC, 50 mM HEPES pH 7.5, 150 mM NaCl, 15 °C, reverse titration, triplicate
Method: Experiments were carried out on an ITC200 titration microcalorimeter from MicroCal, LLC (GE Healthcare) equipped with a Washing module, with a cell volume of 0.2003 mL, and a 40 μL microsyringe. Experiments were carried out at 15 °C while stirring at 1000 rpm, in ITC buffer (50 mM HEPES, pH 7.5 (at 25 °C), 150 mM NaCl). The microsyringe was loaded with a solution of the protein sample (300−740 μM protein for BRD9 and BRD4(1), respectively, in ITC buffer) and was carefully inserted into the calorimetric cell which was filled with an amount of the ligand (0.2 mL, 20–25 μM in ITC buffer). The system was first allowed to equilibrate until the cell temperature reached 15 °C, and an additional delay of 60 s was applied. All titrations were conducted using an initial control injection of 0.3 μL followed by 38 identical injections of 1 μL with a duration of 2 s (per injection) and a spacing of 120 s between injections. The titration experiments were designed in such a fashion as to ensure complete saturation of the proteins before the final injection. The heat of dilution for the proteins was independent of their concentration and corresponded to the heat observed from the last injection, following saturation of ligand binding, thus facilitating the estimation of the baseline of each titration from the last injection. The collected data were corrected for protein heats of dilution (measured on separate experiments by titrating the proteins into ITC buffer) and deconvoluted using the MicroCal Origin software supplied with the instrument to yield enthalpies of binding (ΔH) and binding constants (KB) in the same fashion as that previously described in detail by Wiseman and co-workers.[66] Thermodynamic parameters were calculated using the basic equation of thermodynamics (ΔG = ΔH – TΔS = −RT ln KB, where ΔG, ΔH, and ΔS are the changes in free energy, enthalpy, and entropy of binding, respectively). In all cases a single binding site model was employed, supplied with the MicroCal Origin software package.

[4] = compound 10 μM, protein 2 μM, average of triplicate, read-out: ΔTm Shift, CREBBP
[5] = compound 10 μM, protein 2 μM, average of triplicate, read-out: ΔTm Shift, BRDT(2)
[6] = thermal shift, 10 μM compound, 2 μM protein, read-out: ΔTm

T4 sequence (Q15059 34-140 limits assumed): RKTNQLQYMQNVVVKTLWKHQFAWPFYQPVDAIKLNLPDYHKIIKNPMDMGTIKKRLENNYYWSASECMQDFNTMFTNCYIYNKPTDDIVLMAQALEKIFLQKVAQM
T10 sequence (P25440 74-180 limits assumed): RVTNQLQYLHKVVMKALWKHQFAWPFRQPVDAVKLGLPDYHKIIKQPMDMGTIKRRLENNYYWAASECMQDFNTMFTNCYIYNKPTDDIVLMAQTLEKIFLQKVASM
T8 sequence (Q86U86 653-763 limits assumed): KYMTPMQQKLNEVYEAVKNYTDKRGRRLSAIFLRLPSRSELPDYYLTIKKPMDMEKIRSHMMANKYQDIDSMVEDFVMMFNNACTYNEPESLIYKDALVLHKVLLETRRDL
T12 sequence (P25440 344-453 limits assumed): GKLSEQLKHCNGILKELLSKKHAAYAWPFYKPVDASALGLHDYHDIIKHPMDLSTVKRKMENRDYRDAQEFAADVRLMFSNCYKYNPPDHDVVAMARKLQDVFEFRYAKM
T6 sequence (Q15059 306-415 limits assumed): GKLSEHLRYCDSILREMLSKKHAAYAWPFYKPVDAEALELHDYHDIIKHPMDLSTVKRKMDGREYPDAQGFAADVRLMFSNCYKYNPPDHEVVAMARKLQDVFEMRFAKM
T3 sequence (Q92793 1085-1192 limits assumed): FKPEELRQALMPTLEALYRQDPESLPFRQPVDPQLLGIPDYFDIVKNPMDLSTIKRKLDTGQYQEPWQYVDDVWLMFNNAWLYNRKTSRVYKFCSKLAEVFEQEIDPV

ΔTm at 10 µM (BRD4(2)) | ΔTm at 10 µM (BAZ2B) | ΔTm at 10 µM (CREBBP; [4]) | ΔTm at 10 µM (BRD3(1)) | ΔTm at 10 µM (BRD4(1)) | ΔTm at 10 µM (BRD3(2)) | ΔTm at 10 µM (BRD9 [1]) | binding to the bromodomain panel in the ΔTm assay (in words) [2] | ΔTm at 10 µM (PB1(5)) | ΔTm at 10 µM (BRDT(2); [5]) | ΔTm at 10 µM (BRD2(1)) | ΔTm at 10 µM (BRDT(1)) | ΔTm at 10 µM (BRD2(2)) | ΔTm at 10 µM (PCAF) | ΔTm at 10 µM (CREBBP; [6]) | ΔTm at 10 µM (BRDT(2); [6]) | Structure (SMILES) | KD (BRD9 [3])
-3.8 °C | -1.3 °C | 1.1 °C | -1 °C | -0.7 °C | -0.7 °C | -0.32 °C | very weak or no binding | -0.0233 °C | -2.5 °C | -1 °C | -0.7 °C | -0.5 °C | -1.1 °C |  |  | COc1ccc(-c2nc(N)nc3c2ncn3C)cc1 [Compound 3c, 2-Amino-6-(4-methoxyphenyl)-9-methylpurine] | 
0.8 °C | 0.6 °C | 1.3 °C | 0.743 °C | 1 °C | 0.8 °C | 0.257 °C | very weak or no binding | 0.8 °C | 1.2 °C | 0.32 °C | 0.6 °C | 0.463 °C | 1 °C |  |  | Cn1cnc2c(-c3ccc(Oc4ccccc4)cc3)nc(N)nc21 [Compound 3e, 2-Amino-6-(4-phenoxyphenyl)-9-methylpurine] | 
0.2 °C | 0.6 °C | 0.9 °C | -0.0167 °C | 0.177 °C | 0.223 °C |  | very weak or no binding | 0.5 °C | -0.163 °C | -0.15 °C | 0.273 °C | 0.6 °C | 0.143 °C | 1 to 1.3 °C |  | Cn1cnc2c(-c3cccc(OCc4ccc(Cl)cc4)c3)nc(N)nc21 [Compound 4e, 2-Amino-6-(3-(4′-chlorobenzyloxy)phenyl)-9-methylpurine] | 
0.337 °C | 0.6 °C | 0.74 °C | 0.147 °C | 0.323 °C | 0.467 °C |  | completely abolished bromodomain binding | 0.7 °C | 0.0167 °C | 0.163 °C | 0.4 °C | 0.6 °C | 0.9 °C |  |  | COc1ccc(Br)cc1-c1nc(N)nc2c1ncn2C [Compound 8b, 2-Amino-6-(5-bromo-2-methoxyphenyl)-9-methylpurine] | no binding/weak
0.7 °C | 0.277 °C | 0.34 °C | 0.9 °C | 0.9 °C | 0.187 °C | -0.8 °C | lost affinity across the panel | 0.564 °C | 0.368 °C | 1 °C | 0.9 °C | 0.5 °C | 0.535 °C |  |  | COc1ccc(F)cc1-c1nc(O)nc2[nH]cnc12 [Compound 8d, 6-(5-Fluoro-2-methoxyphenyl)-2-hydroxy-9H-purine] | 
0.7 °C | 0.563 °C | 0.6 °C | 0.55 °C | 1.2 °C | 0.853 °C | -0.66 °C | lost affinity across the panel | 0.8 °C | 1 °C | 1 °C | 0.653 °C | 0.5 °C | 0.378 °C |  |  | COc1ccc(Br)cc1-c1nc(O)nc2[nH]cnc12 [Compound 8f, 6-(5-Bromo-2-methoxyphenyl)-2-hydroxy-9H-purine] | 
0.148 °C | 0.2 °C | 0.259 °C | 0.2 °C | 0.0286 °C | 0.341 °C | 0.8 °C | very low affinity for all bromodomains | 0.0705 °C |  | 0.0729 °C | 0.2 °C | 0.9 °C | -1.5 °C |  | 2.9 °C | COc1ccc(F)cc1-c1ncnc2[nH]c(C)nc12 [Compound 9b, 6-(5-Fluoro-2-methoxyphenyl)-8-methyl-9H-purine] | 

Structure (SMILES) | ΔTm at 10 µM (BRD4(2)) | ΔTm at 10 µM (BAZ2B) | ΔTm at 10 µM (CREBBP; [4]) | ΔTm at 10 µM (BRD3(1)) | ΔTm at 10 µM (BRD4(1)) | ΔTm at 10 µM (BRD3(2)) | ΔTm at 10 µM (BRD9 [1]) | binding to the bromodomain panel in the ΔTm assay (in words) [2] | ΔTm at 10 µM (PB1(5)) | ΔTm at 10 µM (BRDT(2); [5]) | ΔTm at 10 µM (BRD2(1)) | ΔTm at 10 µM (BRDT(1)) | ΔTm at 10 µM (BRD2(2)) | ΔTm at 10 µM (PCAF) | ΔTm at 10 µM (CREBBP; [6]) | ΔTm at 10 µM (BRDT(2); [6]) | KD (BRD9 [3])
CCCCOc1cc(Br)cc(-c2nc(N)nc3c2ncn3C)c1 [Compound 5b, 2-Amino-6-(3-bromo-5-butoxyphenyl)-9-methylpurine] | 0.373 °C | 0.217 °C | 1.3 °C | 0.227 °C | 0.633 °C | 0.5 °C | -0.56 °C | very weak or no binding | 0.5 °C | 1 °C | -0.153 °C | 0.45 °C | 0.163 °C | 0.9 °C |  |  | no binding/weak
COc1ccc(Br)cc1-c1nc(N)nc2c1ncn2CC(C)=O [Compound 8c, 2-Amino-6-(5-bromo-2-methoxyphenyl)-9-(2-oxopropyl)-purine] | -0.431 °C | -0.06 °C | -0.07 °C | 0.275 °C | 0.24 °C | 0.535 °C | -0.109 °C | could not be tolerated | 0.243 °C | 0.571 °C | 0.0207 °C | 0.151 °C | 0.0227 °C | -0.6 °C |  |  | 
